Test results: ChEMBL document CHEMBL4602605, “Fluoroquinolones structural and medicinal developments (2013-2018): Where are we now?” (Bioorg Med Chem, 2019)
≈ marks a conversion by molar mass, not a printed value.

What was measured:
Assay type in all cases: functional
Escherichia coli [1] = test: Antimicrobial activity against Escherichia coli ATCC 8739 by agar dilution method
Pseudomonas aeruginosa [2] = test: Antimicrobial activity against Pseudomonas aeruginosa ATCC 9027 by agar well diffusion method
Staphylococcus aureus [3] = test: Antimicrobial activity against Staphylococcus aureus ATCC 6538 by agar dilution method
Staphylococcus aureus [4] = test: Antimicrobial activity against methicillin-resistant Staphylococcus aureus clinical isolate incubated for 16 hrs by CLSI based agar dilution method
Escherichia coli [5] = test: Antimicrobial activity against Escherichia coli ATCC 700603 incubated for 16 hrs by CLSI-based agar dilution method; settings: ATCC 700603, 16 h
[6] = tested on: Staphylococcus epidermidis; test: Antimicrobial activity against methicillin-resistant Staphylococcus epidermidis clinical isolate incubated for 16 hrs by CLSI based agar dilution method
[7] = tested on: Staphylococcus epidermidis; test: Antimicrobial activity against methicillin-susceptible Staphylococcus epidermidis clinical isolate incubated for 16 hrs by CLSI based agar dilution method
Klebsiella pneumoniae = test: Antimicrobial activity against Klebsiella pneumoniae ATCC 29522 incubated for 16 hrs by CLSI-based agar dilution method; settings: ATCC 29522, 16 h
Staphylococcus aureus [8] = test: Antimicrobial activity against methicillin-susceptible Staphylococcus aureus clinical isolate incubated for 16 hrs by CLSI based agar dilution method
Staphylococcus aureus [9] = test: Antimicrobial activity against methicillin-resistant Staphylococcus aureus ATCC 12-1 incubated for 18 to 24 hrs
Pseudomonas aeruginosa [10] = test: Antimicrobial activity against Pseudomonas aeruginosa ATCC 12-12 incubated for 18 to 24 hrs
[11] = tested on: Staphylococcus epidermidis; test: Antimicrobial activity against methicillin-resistant Staphylococcus epidermidis 12-1 incubated for 18 to 24 hrs
Escherichia coli [12] = test: Antimicrobial activity against Escherichia coli ATCC 25922 incubated for 18 to 24 hrs
Staphylococcus aureus [13] = test: Antimicrobial activity against Staphylococcus aureus ATCC 25923 incubated for 18 to 24 hrs

MIC (Escherichia coli [1]) [µg/mL] | MIC (Pseudomonas aeruginosa [2]) [µg/mL] | MIC (Staphylococcus aureus [3]) [µg/mL] | SMILES | MIC (Staphylococcus aureus [9]) [µg/mL] | MIC (Pseudomonas aeruginosa [10]) [µg/mL] | MIC [11] [µg/mL] | MIC (Escherichia coli [12]) [µg/mL] | MIC (Staphylococcus aureus [13]) [µg/mL] | other results
0.3 (≈ 0.816 µM) | 4.83 (≈ 13.1 µM) | 1.21 (≈ 3.29 µM) | CCn1cc(C(=O)O)c(=O)c2cc(F)c(N3CCNC(C)C3)c(Cl)c21 (centres undefined) |  |  |  |  |  | 
16 (≈ 52.6 µM) | 16 (≈ 52.6 µM) | 0.25 (≈ 0.822 µM) | CCn1cc(C(=O)O)c(=O)c2cc(F)c(N3CCCC3)cc21 |  |  |  |  |  | 
 |  |  | O=C(O)c1cn(C2CC2)c2cc(N3CCN(CC(O)Cn4cc([N+](=O)[O-])nc4Cl)CC3)c(F)cc2c1=O (centres undefined) |  |  |  |  |  | MIC (Staphylococcus aureus [4]): 32 µg/mL (≈ 59.8 µM); MIC (Escherichia coli [5]): 16 µg/mL (≈ 29.9 µM); MIC [6]: 2 µg/mL (≈ 3.74 µM); MIC [7]: 2 µg/mL (≈ 3.74 µM); MIC (Klebsiella pneumoniae): > 32 µg/mL; MIC (Staphylococcus aureus [8]): 4 µg/mL (≈ 7.48 µM)
32 (≈ 101 µM) | 1.28 (≈ 4.02 µM) | < 0.125 | CCn1cc(C(=O)O)c(=O)c2cc(F)c(N3CCCCC3)cc21 |  |  |  |  |  | 
 |  |  | CO/N=C1\CCN(c2c(F)cc3c(=O)c(C(=O)O)cn(C4CC4)c3c2OC)CC1NC(=O)CNC(=O)CN (centres undefined) | > 128 | > 128 | 64 (≈ 120 µM) | 16 (≈ 30 µM) | 4 (≈ 7.51 µM) | 
 |  |  | CO/N=C1\CCN(c2c(F)cc3c(=O)c(C(=O)O)cn(C4CC4)c3c2OC)CC1NC(=O)CN (centres undefined) | 32 (≈ 67.3 µM) | 32 (≈ 67.3 µM) | 32 (≈ 67.3 µM) | 4 (≈ 8.41 µM) | 0.25 (≈ 0.526 µM) | 
 |  |  | CO/N=C1\CCN(c2c(F)cc3c(=O)c(C(=O)O)cn(C4CC4)c3c2OC)CC1NC(=O)[C@H](N)CC(C)C (some centres undefined) | 64 (≈ 120 µM) | 128 (≈ 241 µM) | 64 (≈ 120 µM) | 4 (≈ 7.52 µM) | 0.25 (≈ 0.47 µM) | 
 |  |  | CO/N=C1\CCN(c2c(F)cc3c(=O)c(C(=O)O)cn(C4CC4)c3c2OC)CC1NC(=O)[C@H](C)N (some centres undefined) | 64 (≈ 131 µM) | 64 (≈ 131 µM) | 32 (≈ 65.4 µM) | 4 (≈ 8.17 µM) | 0.125 (≈ 0.255 µM) | 
 |  |  | CO/N=C1\CCN(c2c(F)cc3c(=O)c(C(=O)O)cn(C4CC4)c3c2OC)CC1NC(=O)[C@@H](N)C(C)C (some centres undefined) | 64 (≈ 124 µM) | 32 (≈ 61.8 µM) | 64 (≈ 124 µM) | 4 (≈ 7.73 µM) | 0.25 (≈ 0.483 µM) | 
 |  |  | COc1c(N2CCN(CC(O)Cn3cc([N+](=O)[O-])nc3C)C(C)C2)c(F)cc2c(=O)c(C(=O)O)cn(C3CC3)c12 (centres undefined) |  |  |  |  |  | MIC (Staphylococcus aureus [4]): 32 µg/mL (≈ 57.3 µM); MIC (Escherichia coli [5]): 8 µg/mL (≈ 14.3 µM); MIC [6]: 1 µg/mL (≈ 1.79 µM); MIC [7]: 1 µg/mL (≈ 1.79 µM); MIC (Klebsiella pneumoniae): > 32 µg/mL; MIC (Staphylococcus aureus [8]): 1 µg/mL (≈ 1.79 µM)
 |  |  | CO/N=C1\CCN(c2c(F)cc3c(=O)c(C(=O)O)cn(C4CC4)c3c2OC)CC1NC(=O)[C@H](N)Cc1ccc(O)cc1 (some centres undefined) | > 128 | 128 (≈ 220 µM) | 64 (≈ 110 µM) | 16 (≈ 27.5 µM) | 2 (≈ 3.44 µM) | 
 |  |  | COc1c(N2CCN(C[C@H](O)Cn3cc([N+](=O)[O-])nc3C)C(C)C2)c(F)cc2c(=O)c(C(=O)O)cn(C3CC3)c12 (some centres undefined) |  |  |  |  |  | MIC (Staphylococcus aureus [4]): 16 µg/mL (≈ 28.6 µM); MIC (Escherichia coli [5]): 32 µg/mL (≈ 57.3 µM); MIC [6]: 32 µg/mL (≈ 57.3 µM); MIC [7]: 32 µg/mL (≈ 57.3 µM); MIC (Klebsiella pneumoniae): 32 µg/mL (≈ 57.3 µM); MIC (Staphylococcus aureus [8]): 32 µg/mL (≈ 57.3 µM)
 |  |  | COc1c(N2CCCC(N(C)CC(O)Cn3cc([N+](=O)[O-])nc3C)C2)c(F)cc2c(=O)c(C(=O)O)cn(C3CC3)c12 (centres undefined) |  |  |  |  |  | MIC (Staphylococcus aureus [4]): 8 µg/mL (≈ 14 µM); MIC (Escherichia coli [5]): 4 µg/mL (≈ 6.99 µM); MIC [6]: 0.125 µg/mL (≈ 0.218 µM); MIC [7]: 0.5 µg/mL (≈ 0.873 µM); MIC (Klebsiella pneumoniae): 2 µg/mL (≈ 3.49 µM); MIC (Staphylococcus aureus [8]): 0.5 µg/mL (≈ 0.873 µM)
128 (≈ 363 µM) | 128 (≈ 363 µM) | 2 (≈ 5.67 µM) | CCn1cc(C(=O)O)c(=O)c2cc(F)c(N3CCCCC3)c(Cl)c21 |  |  |  |  |  | 
 |  |  | CO/N=C1\CCN(c2c(F)cc3c(=O)c(C(=O)O)cn(C4CC4)c3c2OC)CC1NC(=O)C(C)NC(=O)C(C)N (centres undefined) | > 128 | 128 (≈ 228 µM) | 64 (≈ 114 µM) | 32 (≈ 57.1 µM) | 4 (≈ 7.14 µM) | 

SMILES | MIC (Escherichia coli [1]) [µg/mL] | MIC (Pseudomonas aeruginosa [2]) [µg/mL] | MIC (Staphylococcus aureus [3]) [µg/mL] | MIC (Staphylococcus aureus [9]) [µg/mL] | MIC (Pseudomonas aeruginosa [10]) [µg/mL] | MIC [11] [µg/mL] | MIC (Escherichia coli [12]) [µg/mL] | MIC (Staphylococcus aureus [13]) [µg/mL] | other results
CCn1cc(C(=O)O)c(=O)c2cc(F)c(N3CCNCC3)c(Cl)c21 | 2 (≈ 5.65 µM) | 32 (≈ 90.5 µM) | 4 (≈ 11.3 µM) |  |  |  |  |  | 
